The results in this text go back to patent US6713517B1, “Use of aryl N-substituted carboxamides directly and as radio-and chemosensitizers for killing tumor and cancer cells and novel compounds for such use” (OXiGENE, Inc., priority 1996, dated 2004).

A short description of series [1]: Solubility in water of the hydrochloride salt. As to conditions: amorphous hydrochloride salt. It is filed as physicochemical. On the procedure: Preparation of the hydrochloride salt of N-(2-diethylamino-ethyl)nicotinamide. The free base [compound (3)] was dissolved in n-propanol+n-butanol+0.1 M HClaq (2:1:1, v/v/v). An aliquate of 2 M aqueous […] was added to adjust the pH to 2. The solution was concentrated and the resulting amorphous material was dried under vacuum overnight.

Series [2] relates to human lymphocytes (purified mononuclear leukocytes). It is filed as cell-based. As to conditions: for radiosensitization of cytotoxicity by apoptosis: 1 Gy radiation plus drug (100 μM MCA or 1000 μM others), FIG. 6B; for induction of / effect on apoptotic cytotoxicity: drug alone (FIG. 6A) or with 1 Gy radiation (FIG. 6B). As for the experimental part:
Evaluation of radiosensitization by apoptotic cytotoxicity. […] The cells were first exposed to the drugs for 30 minutes at 37° C. before being given 1 Gy irradiation (^137cesium source, Scanditronix, 1.56 Gy/min). The apoptotic and necrotic cells were analyzed and scored by phase contrast morphological criteria. Apoptotic cells have condensed chromatin and are trypan blue negative whereas necrotic cells stain blue with trypan blue.

“Also recorded” adds a separate entry of the source.

`CCN(CC)CCNC(=O)c1cccnc1.Cl` [N-(2-diethylaminoethyl) nicotinamide HCl]: the solubility in water result in series [1] is “readily soluble in water”. As for `CCN(CC)CCNC(=O)c1cc(Cl)c(N)cc1OC` [metoclopramide, 4-amino-5-chloro-N-(2-diethylamino-ethyl)-2-methoxybenzamide], in series [2], the “radiosensitization of cytotoxicity by apoptosis” value is reported as “having the properties to sensitize apoptotic cell killing by radiation; also recorded: effective” and the “induction of / effect on apoptotic cytotoxicity” value is given as “capable of inducing apoptotic cytotoxicity”. For the compound `NC(=O)c1cccnc1` [nicotinamide], in series [2], the “radiosensitization of cytotoxicity by apoptosis” value was “not and does not sensitize cytotoxicity by apoptosis”; the “induction of / effect on apoptotic cytotoxicity” value is reported as “not able to affect cytotoxicity by apoptosis”.
